Test results reported in US20120172375A1, “COMPOUNDS AND METHODS OF PROMOTING OLIGODENDROCYTE PRECURSOR DIFFERENTIATION” (priority 2008, published 2012).
Entries after “also recorded” stand apart in the source; their conditions may differ.

How the values were obtained:
[1] = Detection of small molecules in blood plasma and brain tissue by mass spectrometry; details: for blood plasma level, average / brain level, average: 4 mice; for blood plasma level, average / brain level, average / Biological sample concentration (nM), Brain / Biological sample concentration (nM), Plasma: 100 mg/kg i.p., two doses in 5 days; for crossing of the blood brain barrier: two I.P. doses in a five day-term
Experimental: The signal was optimized for each compound for positive or negative ionization by ESI (Electrospray ionization). A standard curve what made with pure compound solutions in DMSO up to 10 ng/ml. A MS2 scan was used to identify the progenitor ion and a product ion analysis was used to identify the best fragment for analysis and to optimize the collision energy. […] Samples were precipitated in 3 volumes of methanol with internal standard, centrifuged, and filtered. Filtered samples were analyzed by LC/MS/MS using either an Agilent 6410 mass spectrometer coupled with an Agilent 1200 HPLC and a CTC PAL chilled autosampler, all controlled by MassHunter software (Agilent), or an AB12000 mass spectrometer coupled with an Agilent 1100 HPLC and a CTC PAL chilled autosampler, all controlled by Analyst software (ABI). After separation on a C18 reverse phase HPLC column (Agilent, Waters, or equivalent) using an acetonitrile-water gradient system, peaks were analyzed by mass spectrometry (MS) using ESI ionization in MRM (Multiple Reaction Monitoring) mode.
4 mice per condition were injected i.p. (100 mg/kg), following the same experimental paradigm performed for the tissue analysis (two doses m a 5 days time).

[2] = tested on: tg[Plp:EGFP] zebrafish embryos; assay: Oligodendrocyte development in tg[Plp:EGFP] zebrafish embryos; format: in vivo; details: 1, 10 and 100 nM from 24 hpf, analysed at 72 hpf
Experimental: Transgenic-Proteolipid protein-enhanced green fluorescence protein (tg[plp:EGFP]) zebrafish was raised and maintained (Yoshida and Macklin, J. Neurosci Res, 81:1, 2005). Embryos were collected and staged by hour post fertilization (hpf). Compounds were added at 24 hpf stage at a concentration of 10 nM, 100 nM and 1 μM. After 48 hrs (72 hpf stage), zebrafish embryos were anesthetized in 0.02% tricaine, fixed in 4% paraformaldehyde, and washed in phosphate buffered saline (PBS). After treating with 10% Triton X-100 for 30 minutes, embryos were washed in PBS and blocked with 3% goat serum. Embryos were then incubated at 4° C. overnight with FITC-conjugated goat anti-GFP antibody (Abcam, Cambridge, Mass.) at a concentration of 1:1000. After several washes with PBS, the embryos were embedded in 100% glycerol and visualized on a Leica SP5 confocal microscope.
Embryos from transgenic-Plp-EGFP (tg[Plp:EGFP]) zebrafish were treated starting at 24 hours post fertilization (hpf) with compounds A, A-7 or B (1, 10 and 100 nM) or vehicle (DMSO). At 72 hpf effective treatments were analyzed by confocal microscopy after fixation and EGFP immunostaining of selected positive compounds.

[3] = tested on: lysolecithin-demyelinated cerebellar explants; assay: Myelin regeneration in lysolecithin-demyelinated cerebellar explants; format: cell-based, mouse; details: 1 μM, 10 additional days after lysolecithin
Experimental: Myelination-demyelination-remyelination studies in cerebella organotypic cultures were carried out. In brief, after careful dissection to keep the tissue intact, cerebella of postnatal day 4-7 wild type or Plp-EGFP mouse pups was sectioned at 400-μm thickness using a Leica VT1000S vibratome. Cerebella sections were then plated on insert plates and a few droplets of high-glucose media were added to cover the tissue during the first 6 hours to allow attachment of the slices to the insert plate surface. Media used was 50% DMEM/F12, 25% Hank's buffered salt solution (both from Gibco), 25% horse serum, 5 mg/ml glucose and a combination of streptomycin/penicillin (Gibco). When the slices were firmly attached, fresh media was added to cover the tissue and the cultures were maintained in this conditions during 4-10 days. To induce demyelination, 0.5 mg/ml lysolecithin (I′-monoacyl-L-3-glycerylphosphorylcholine, Sigma) was added to the culture media for 17 hrs. After this time, the culture media was changed and treatments were performed by adding small molecules or DMSO controls to the plates for 4-10 additional days. Demyelination-remyelination was assessed by green fluorescence (Plp-EGFP) or immunostaining for myelin-axonal proteins and visualization was performed by confocal microscopy.
Acute demyelination of cerebellum tissue explants has been previously used as a reliable methodology to study myelin formation and regeneration Taking advantage of our Pip-EGFP mouse, which allowed for the accurate tracking of oligodendrocyte cell behavior during myelination/demyelination/remyelination and the cerebellar explants methodology, we analyzed the effect of compounds A, A-7 and B or oligodendrocyte cells and myelin regeneration after demyeliantion of the cerebellar explants with lysolecithin. Cerebellum from postnatal day 7 mice pups (P7) was sectioned and maintained in culture (see methods). […]

Akt = Akt activity in cell extracts of oligodendrocyte precursors (phosphorylation of Akt substrate GSKα/β); format: cell-based; details: 10 μM, 48 h
From the text: Oligodendrocyte precursor differentiation requires the activation of a complex, highly controlled machinery that signals cells to stop migrating/proliferating and start extending processes and producing myelin components. A number of inducers and intracellular mediators of this process have been identified in vitro and in viva. […] Therefore, we studied whether our selected small molecules induced Akt signaling in oligodendrocyte precursors. We analyzed Akt activity in cell extracts of oligodendrocyte precursors treated with selected compounds (10 μM, 48 h), as determined by phosphorylation of Akt substrate GSKα/β.

[4] = tested on: oligodendrocyte progenitors; assay: BrdU incorporation, proliferation of oligodendrocyte progenitors; format: cell-based, mouse; details: 10 nM, 48 h; Average±SEM; control 26.3±3.2; not statistically significant
Experimental: A feasible effect of small molecules on oligodendrocyte progenitor cells is the induction of proliferation. We studied this possibility by treating cultures of oligodendrocyte progenitors, previously exposed to compounds A, A-7 and B (10 nM, 48 h) with BrdU (Bromodeoxyuridine, 10 μM added 24 hrs before the end of the treatment) and posterior immunostaining to detect BrdU positive cells. This is a well established method to determine cell division and proliferation by incorporation of the […]. After counting BrdU positive oligodendrocytes versus total cells in three independent experiments we observed a slight tendency of increased proliferation in cells treated with compounds A, A-7 or B. However, there were not statistically significant differences between treated and control cells (control: 26.3±3.2; compound A: 29.2±4.0; compound A-7: 28,9±2.1; compound B: 27.6±6.7; Values are represented as Average±SEM).

[5] = tested on: oligodendrocyte precursors; assay: Oligodendrocyte precursor maturation after pre-incubation with PI3K, mTOR or Akt inhibitors (MBP immunostaining); format: cell-based; details: 48 h treatment; for effect of Akt inhibitor on compound-induced differentiation: Akt 1/2 inhibitor 1 μM added 1 hr before; for effect of PI3K inhibition on compound-induced oligodendrocyte precursor maturation: wortmannin 0.1 μM added 1 hr before
Experimental: Akt signaling has been extensively studied, and activation of phosphatidyl-inositol-3-kinase (PI3K) is generally accepted as a canonical upstream Akt activator. Downstream targets of Akt have also been identified and those include GSK, mTOR, p70SK, ASK amongst many others. In order to determine the relevance of […], signaling in the phosphorylation of Akt induced by compounds A and B and possible downstream targets of phosphorylated Akt, we pre-incubated the cells with inhibitors of PI3K (wortmannin, 0.1 μM), mTOR (rapamycin 0.1 μM) or a direct Akt ½ inhibitor (trifluoroacetate salt hydrate, 1 μM), all added 1 hr before the treatment with compounds A or B.
Cells were immunostained for MBP and after 48 h treatment with compound A or B the cells underwent morphology changes indicative of cell differentiation that included the generation of multiple cell processes and development of membranous structures.

SMILES	blood plasma level, average [1] [nM]	brain level, average [1] [nM]	Biological sample concentration (nM), Brain ([1]; Sample No. 1) [nM]	Biological sample concentration (nM), Plasma ([1]; Sample No. 1) [nM]	Biological sample concentration (nM), Brain ([1]; Sample No. 2) [nM]	Biological sample concentration (nM), Plasma ([1]; Sample No. 2)	Biological sample concentration (nM), Brain ([1]; Sample No. 3) [nM]	Biological sample concentration (nM), Brain ([1]; Sample No. 4) [nM]	Biological sample concentration (nM), Plasma ([1]; Sample No. 4) [nM]	crossing of the blood brain barrier [1]	number of oligodendrocyte progenitor cells and fluorescence intensity in embryos [2]	oligodendrocyte cell recovery and myelin regeneration [3]	Biological sample concentration (nM), Plasma ([1]; Sample No. 3) [nM]	Akt phosphorylation (Akt)	BrdU positive oligodendrocytes versus total cells [4]	effect of Akt inhibitor on compound-induced differentiation [5]	effect of PI3K inhibition on compound-induced oligodendrocyte precursor maturation [5]	effect of mTOR inhibition on compound-induced oligodendrocyte precursor maturation ([5]; rapamycin 0.1 μM added 1 hr before)
CC(C)N1CCN(C(=O)COc2ccc(-c3ccccc3)cc2)CC1 [Compound A-7, 1-(Biphenyl-4-yloxy)acetyl-4-isopropylpiperazine]	9.2	13.5	16.6	4.2	16.8	5.3 L nM	4.21	6.2	3.6	effectively crossed the blood brain barrier	clear increase; also recorded: increased accumulation of oligodendrocytes and enhanced differentiation	remarkable oligodendrocyte cell recovery; also recorded: evident oligodendrocyte cell recovery and myelin regeneration						
CCS(=O)(=O)N1CCN(C(=O)COc2ccc(-c3ccccc3)cc2)CC1 [Compound A, 1-[(4-biphenylyloxy)acetyl]-4-(ethylsulfonyl)piperazine]	131.3	9.2	4.6	90	14.7	149 nM	13.2	4.3	157	effectively crossed the blood brain barrier	clear increase; also recorded: increased accumulation of oligodendrocytes and enhanced differentiation	remarkable oligodendrocyte cell recovery; also recorded: evident oligodendrocyte cell recovery and myelin regeneration	129	clearly detected	29.2±4.0	completely blocked	did not block	
O=[N+]([O-])c1ccc(F)c(NS(=O)(=O)c2ccc(F)cc2)c1 [Compound B, 4-fluoro-N-(2-fluoro-5-nitrophenyl)benzenesulfonamide]												remarkable oligodendrocyte cell recovery; also recorded: evident oligodendrocyte cell recovery and myelin regeneration		clearly detected	27.6±6.7	completely blocked	did not block	totally avoided
